Data from PubChem BioAssay (NCI).
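Step 1: Grow cells in 96-well plates. Step 2: Expose to compound for 48 hours at 5 concentrations. Step 3: Interpolate endpoints linearly; if unreached, use highest concentration. The concentration for 50% growth inhibition is given as GI50. At the TGI there is no net growth.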

Experiments:
Experiment in all cases: NCI-60 cell line screen, 48 h
[1] = test system: TK-10 renal
[2] = test system: KM12 colon
[3] = test system: OVCAR-8 ovarian
[4] = test system: A498 renal
[5] = test system: CAKI-1 renal
[6] = test system: DU-145 prostate
[7] = test system: RXF 393 renal
[8] = test system: NCI-H522 lung
[9] = test system: PC-3 prostate
[10] = test system: NCI/ADR-RES ovarian
[11] = test system: M14 melanoma
[12] = test system: MDA-MB-435
[13] = test system: HT29 colon
[14] = test system: HOP-92 NSCLC
[15] = test system: UACC-62 melanoma
[16] = test system: SF-295 CNS
[17] = test system: HCT-15 colon
[18] = test system: HCC-2998 colon
[19] = test system: SNB-75 CNS
[20] = test system: U251 CNS
[21] = test system: SF-268 CNS
[22] = test system: SNB-19 CNS
[23] = test system: SK-MEL-28 melanoma
[24] = test system: UO-31 renal
[25] = test system: ACHN renal
[26] = test system: 786-0 renal
[27] = test system: HS 578T breast
[28] = test system: OVCAR-3 ovarian
[29] = test system: MALME-3M melanoma
[30] = test system: SF-539 CNS
[31] = test system: NCI-H226 lung
[32] = test system: RPMI-8226 leukemia
[33] = test system: IGROV1 ovarian
[34] = test system: NCI-H460 lung
[35] = test system: CCRF-CEM leukemia
[36] = test system: EKVX NSCLC
[37] = test system: LOX IMVI melanoma
[38] = test system: HOP-62 NSCLC
[39] = test system: HCT-116 colon
[40] = test system: MCF7 breast
[41] = test system: A549 NSCLC
[42] = test system: OVCAR-4 ovarian
[43] = test system: MDA-MB-231 breast
[44] = test system: SK-OV-3 ovarian
[45] = test system: OVCAR-5 ovarian
[46] = test system: SN12C renal
[47] = test system: SK-MEL-5 melanoma
[48] = test system: UACC-257 melanoma
[49] = test system: SK-MEL-2 melanoma
[50] = test system: BT-549 breast
[51] = test system: COLO 205 colon
[52] = test system: T-47D breast
[53] = test system: SW-620 colon
[54] = test system: K-562 leukemia
[55] = test system: SR leukemia
[56] = test system: NCI-H23 lung
[57] = test system: HL-60(TB) leukemia
[58] = test system: MOLT-4 leukemia

## N#Cc1nc(-c2ccccc2)oc1S(=O)(=O)N1CCCCC1
[1]
  GI50: 22.1 µM
  TGI: 63.2 µM
[2]
  GI50: 29.1 µM
  TGI: > 100 µM
[3]
  GI50: 22.1 µM
  TGI: 56.5 µM
[4]
  GI50: > 100 µM
  TGI: > 100 µM
[5]
  GI50: 7.37 µM
  TGI: 20.3 µM
[6]
  GI50: 15.3 µM
  TGI: 28.6 µM
[7]
  GI50: 9.52 µM
  TGI: 22.7 µM
[8]
  GI50: 2.08 µM
  TGI: 7.94 µM
[9]
  GI50: 19.4 µM
  TGI: 53.6 µM
[10]
  GI50: 30.8 µM
  TGI: > 100 µM
[11]
  GI50: 11.2 µM
  TGI: 61 µM
[12]
  GI50: 14.6 µM
  TGI: 31.2 µM
[13]
  GI50: 12.4 µM
  TGI: 28.4 µM
[14]
  GI50: 6.29 µM
  TGI: 19.6 µM
[15]
  GI50: 19.5 µM
  TGI: 49.6 µM
[16]
  GI50: > 100 µM
  TGI: > 100 µM
[17]
  GI50: 5.32 µM
  TGI: 25.8 µM
[18]
  GI50: 17.1 µM
  TGI: 32.8 µM
[19]
  GI50: 18.3 µM
  TGI: 43.8 µM
[20]
  GI50: 17.5 µM
  TGI: 36.8 µM
[21]
  GI50: 26.6 µM
  TGI: > 100 µM
[22]
  GI50: 72.3 µM
  TGI: > 100 µM
[23]
  GI50: 17.5 µM
  TGI: 33.8 µM
[24]
  GI50: 15.1 µM
  TGI: 28.3 µM
[25]
  GI50: 4.98 µM
  TGI: 16.5 µM
[26]
  GI50: 18.7 µM
  TGI: 52.4 µM
[27]
  GI50: 23.1 µM
  TGI: 87.2 µM
[28]
  GI50: 10.5 µM
  TGI: 24.4 µM
[29]
  GI50: 10.8 µM
  TGI: 32 µM
[30]
  GI50: 17.5 µM
  TGI: 34.3 µM
[31]
  GI50: 10.3 µM
  TGI: 26.5 µM
[32]
  GI50: 17.5 µM
  TGI: 49.5 µM
[33]
  GI50: 28.7 µM
  TGI: > 100 µM
[34]
  GI50: 26.6 µM
  TGI: > 100 µM
[35]
  GI50: 2.36 µM
  TGI: > 100 µM
[36]
  GI50: > 100 µM
  TGI: > 100 µM
[37]
  GI50: 1.51 µM
  TGI: 5.24 µM
[38]
  GI50: > 100 µM
  TGI: > 100 µM
[39]
  GI50: 4.95 µM
  TGI: 23.6 µM
[40]
  GI50: 9.02 µM
  TGI: 26.9 µM
[41]
  GI50: 71.7 µM
  TGI: > 100 µM
[42]
  GI50: 14.2 µM
  TGI: 32.3 µM
[43]
  GI50: 25.4 µM
  TGI: 80.7 µM
[44]
  GI50: > 100 µM
  TGI: > 100 µM
[45]
  GI50: 21.9 µM
  TGI: 52.8 µM
[46]
  GI50: 14.9 µM
  TGI: 47.5 µM
[47]
  GI50: 30.9 µM
  TGI: > 100 µM
[48]
  GI50: 17.8 µM
  TGI: 50.4 µM
[49]
  GI50: 15.3 µM
  TGI: 45.1 µM
[50]
  GI50: 13.7 µM
  TGI: 48.8 µM
[51]
  GI50: 2.67 µM
  TGI: 7.1 µM
[52]
  GI50: 16.2 µM
  TGI: 36.8 µM
[53]
  GI50: 4.17 µM
  TGI: 18.1 µM

## O=C1CC2(CCOCC2)Oc2ncccc21
[1]
  GI50: 6.68 µM
  TGI: 37.1 µM
[2]
  GI50: 2.76 µM
  TGI: 7.65 µM
[3]
  GI50: 2.19 µM
  TGI: 4.92 µM
[4]
  GI50: 2.38 µM
  TGI: 9.57 µM
[5]
  GI50: 1.6 µM
  TGI: 3.04 µM
[6]
  GI50: 2.98 µM
  TGI: 8.42 µM
[7]
  GI50: 1.77 µM
  TGI: 3.41 µM
[8]
  GI50: 2 µM
  TGI: 4.15 µM
[9]
  GI50: 2.42 µM
  TGI: 6.03 µM
[10]
  GI50: 2.05 µM
  TGI: 4.99 µM
[11]
  GI50: 1.85 µM
  TGI: 3.76 µM
[54]
  GI50: 1.99 µM
  TGI: > 100 µM
[12]
  GI50: 2 µM
  TGI: 4.3 µM
[13]
  GI50: 2.19 µM
  TGI: 4.85 µM
[14]
  GI50: 1.67 µM
  TGI: 3.3 µM
[15]
  GI50: 1.7 µM
  TGI: 3.22 µM
[16]
  GI50: 12.5 µM
  TGI: 25.4 µM
[17]
  GI50: 1.7 µM
  TGI: 3.34 µM
[18]
  GI50: 1.78 µM
  TGI: 3.4 µM
[19]
  GI50: 2.07 µM
  TGI: 12.4 µM
[20]
  GI50: 1.83 µM
  TGI: 3.63 µM
[21]
  GI50: 2.55 µM
  TGI: 7.7 µM
[22]
  GI50: 2.05 µM
  TGI: 4.83 µM
[23]
  GI50: 1.81 µM
  TGI: 3.36 µM
[24]
  GI50: 2.63 µM
  TGI: 12.8 µM
[25]
  GI50: 1.81 µM
  TGI: 3.21 µM
[26]
  GI50: 2.38 µM
  TGI: 6.33 µM
[27]
  GI50: 2.54 µM
  TGI: 8.26 µM
[55]
  GI50: 0.974 µM
  TGI: 4.69 µM
[29]
  GI50: 1.79 µM
  TGI: 3.51 µM
[56]
  GI50: 1.89 µM
  TGI: 3.86 µM
[30]
  GI50: 1.74 µM
  TGI: 3.22 µM
[31]
  GI50: 2.06 µM
  TGI: 4.59 µM
[32]
  GI50: 0.545 µM
  TGI: 4.7 µM
[33]
  GI50: 1.88 µM
  TGI: 3.86 µM
[34]
  GI50: 2.3 µM
  TGI: 5.61 µM
[35]
  GI50: 2.11 µM
  TGI: 4.74 µM
[36]
  GI50: 1.84 µM
  TGI: 3.87 µM
[38]
  GI50: 3.24 µM
  TGI: 13.1 µM
[39]
  GI50: 1.87 µM
  TGI: 3.59 µM
[40]
  GI50: 2.8 µM
  TGI: 12.8 µM
[41]
  GI50: 4.94 µM
  TGI: 19.1 µM
[42]
  GI50: 2.1 µM
  TGI: 4.82 µM
[43]
  GI50: 1.7 µM
  TGI: 3.15 µM
[44]
  GI50: 15.7 µM
  TGI: 29.3 µM
[45]
  GI50: 1.7 µM
  TGI: 3.18 µM
[57]
  GI50: 2.23 µM
  TGI: 5.2 µM
[46]
  GI50: 1.84 µM
  TGI: 3.44 µM
[47]
  GI50: 2.09 µM
  TGI: 4.34 µM
[48]
  GI50: 2.53 µM
  TGI: 7.53 µM
[49]
  GI50: 2.73 µM
  TGI: 7.32 µM
[50]
  GI50: 1.84 µM
  TGI: 3.36 µM
[51]
  GI50: 1.91 µM
  TGI: 4 µM
[52]
  GI50: 4.66 µM
  TGI: 26.9 µM
[58]
  GI50: 2.11 µM
  TGI: 4.8 µM
[53]
  GI50: 1.77 µM
  TGI: 3.5 µM
